Assay results: patent US6462024B1, “Use of inhibitors of the sodium-hydrogen exchanger for the production of a medicament for decreasing undesired effects of substrates of the heart” (Aventis Pharma Deutschland GmbH, priority 1997, dated 2002)
Entries after “also recorded” stand apart in the source; their conditions may differ.

System: isolated functioning rat heart
Assay: low flow ischemia and reperfusion in the isolated functioning rat heart (working-heart mode)
Design: species or system Wistar-Kyoto rats
Conditions: for Incidence of ventricular fibrillations (VF) / Mean duration of ventricular fibrillations (VF) / Incidence of ventricular tachycardias (VT) / Mean duration of ventricular tachycardias and fibrillations (VT + VF): cariporide 1 μmol/l, Rulide 20 mg/kg oral; for incidence of ventricular fibrillation during the reperfusion phase / length of ventricular arrhythmias during the reperfusion phase: macrolide (Rulide) group versus macrolide-pretreated hearts treated with cariporide
Method: All investigations were carried out using hearts of Wistar-Kyoto rats (300-400 g body weight, BW). The rats were kept on a standard diet and had free access to water. The rats were anesthetized with pentobartital (60 mg/kg, i.p.), heparinized (500 I.U./100 g BW i.p.) and respirated with room air via a cannula which was inserted into the trachea. The thorax was then opened, and the heart was removed and placed in a 4° C. physiological solution. After cannulation of the aorta, the hearts were suspended in the unit and perfused in a retrograde manner according to the Langendorff method with an oxygenated (95% O2, 5% CO2), noncirculating Tyrode solution (in mmol/l: NaCl 124.6; KCl 4.0; CaCl2 2.2; MgCl2 1.1; NaHCO3 24.9; NaH2PO4 0.3; glucose 11.1) using a perfusion pressure of 51 mm Hg. The pulmonary artery and the left auricle were then cannulated and all pulmonary veins were ligated close to the auricle. After an equilibration phase of 15 minutes, the retrograde perfusion was changed into an anterograde perfusion (working-heart mode). At the same time, the filling pressure was adjusted to 11 mm Hg and the afterload to 51 mm Hg. The hearts were paced during the entire experiment at a frequency of 5 Hz. After 15 minutes in the working mode, the coronary flow was reduced by 90% in order to include a global low flow ischemia. The aortic pressure drops from 51 to 11 mm Hg in the course of this. This situation represents an angina pectoris attack in the patient. The low flow ischemia lasted 30 minutes. The hearts were then reperfused for 15 minutes in the Langendorff mode and for a further 15 minutes in the working mode. All animals received oral Rulide (macrolide, 20 mg/kg) dissolved in 1 ml of olive oil, or only 1 ml of olive oil (control), before the experiments. The Na^+/H^+ exchange inhibitor cariporide (1 μmol/l) and its vehicle (Tyrode solution) were added directly to the perfusion solution, i.e. immediately before the latter flows into the heart. The computer-controlled infusion of cariporide and the vehicle solution was begun 15 minutes before low flow ischemia and lasted for the entire experiment. The infusion quantity was 1:100th of the heart minute volume. The following parameters were measured 15 minutes before ischemia and at the end of the reperfusion phase: left ventricular pressure (LVP), left auricle pressure (LAP), aortic pressure (AP), heart-time volume (HTV), coronary flow (CF), aortic flow (AF), heart rate (HR), contractility (dP/dtmax), left ventricular pressure increase (LVPI) and the external heart work (EHW). From these values, the recovery (values after reperfusion based on the starting values before ischemia in %) was calculated. Moreover, the ECG was recorded during the entire experiment and the sum of the individual arrhythmia intervals (ventricular tachycardias and ventricular fibrillations) over the entire experimental period was formed.

[1] = pretreatment with Rulide, ischemia and reperfusion

In the case of `CC[C@H]1OC(=O)[C@H](C)[C@@H](O[C@H]2C[C@@](C)(OC)[C@@H](O)[C@H](C)O2)[C@H](C)[C@@H](O[C@@H]2O[C@H](C)C[C@H](N(C)C)[C@H]2O)[C@](C)(O)C[C@@H](C)/C(=N\OCOCCOC)[C@H](C)[C@@H](O)[C@]1(C)O` [Rulide, reference compound], the “Incidence of ventricular fibrillations (VF)” value (“Incidence … (VF)” below) (during ischemia) was 100%, the “Mean duration of ventricular fibrillations (VF)” value (during ischemia) was 181 ± 79 s and the “Incidence … (VF)” value (during reperfusion) was 100%. For the same molecule, the “Incidence of ventricular tachycardias (VT)” value (during reperfusion) was 100%, the “Mean duration of ventricular tachycardias and fibrillations (VT + VF)” value (during reperfusion) was 1709 ± 319 s and the “incidence of ventricular fibrillation during the reperfusion phase” value was 100%. The “length of ventricular arrhythmias during the reperfusion phase” value was 1709 s, the “incidence and duration of ventricular arrhythmias compared with the control group” value [1] was “increase in the incidence and the duration of ventricular arrhythmias” and the “recovery compared with the control group” value [1] was “further impairment of recovery”.
In the case of `CC(C)c1ccc(C(=O)NC(=N)N)cc1S(C)(=O)=O` [Cariporide (HOE642), cariporide], the “effect on the arrhythmias during ischemia” value (during ischemia) was “no effect”, the “Incidence … (VF)” value (during ischemia) was 33% and the “Mean duration of ventricular fibrillations (VF)” value (during ischemia) was 38 ± 26 s. The “Incidence … (VF)” value (during reperfusion) was 0%, the “Incidence of ventricular tachycardias (VT)” value (during reperfusion) was 100% and the “Mean duration of ventricular tachycardias and fibrillations (VT + VF)” value (during reperfusion) was 204 ± 32 s. For the same molecule, the “incidence of ventricular fibrillation during the reperfusion phase” value was 38%, the “length of ventricular arrhythmias during the reperfusion phase” value was 198 s and the “cardiotoxic effect of the macrolide” value (pretreatment of the heart with cariporide, ischemia and reperfusion) was “completely prevented; also recorded: completely inhibits”.
